# From ChEMBL document CHEMBL1201862, “PubChem BioAssay data set” (2004)
#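 A five-concentration, 48-hour dose response in 96-well plates underlies each endpoint, interpolated linearly between surrounding concentrations. GI50 marks 50% less growth.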 Calls of active or inactive are those of the source. No stated cut-off is given here; in the data, active = GI50 up to about 1.1 µM and inactive = higher.
# Legend:
# Assay in all cases: NCI-60 cell line screen, 48 h
# [1] = system: TK-10
# [2] = system: DU-145
# [3] = system: SK-MEL-28
# [4] = system: COLO 205
# [5] = system: MCF7
# [6] = system: 786-0
# [7] = system: LXFL 529
# [8] = system: SF-539
# [9] = system: PC-3
# [10] = system: RXF 631
# [11] = system: RXF 393
# [12] = system: HOP-62
# [13] = system: HCC 2998
# [14] = system: HOP-92
# [15] = system: SF-268
# [16] = system: M14
# [17] = system: DLD-1
# [18] = system: NCI-H23
# [19] = system: NCI-H460
# [20] = system: OVCAR-4
# [21] = system: A498
# [22] = system: Malme-3M
# [23] = system: UACC-257
# [24] = system: SF-295
# [25] = system: HCT-15
# [26] = system: CCRF-CEM
# [27] = system: MDA-N
# [28] = system: U-251
# [29] = system: CAKI-1
# [30] = system: SN12C
# [31] = system: RPMI-8226
# [32] = system: HT-29
# [33] = system: UACC-62
# [34] = system: M19-MEL
# [35] = system: SK-OV-3
# [36] = system: HCT-116
# [37] = system: KM12
# [38] = system: SK-MEL-5
# [39] = system: DMS-114
# [40] = system: EKVX
# [41] = system: OVCAR-5
# [42] = system: SR
# [43] = system: NCI/ADR-RES
# [44] = system: MOLT-4
# [45] = system: IGROV-1
# [46] = system: OVCAR-3
# [47] = system: SW-620
# [48] = system: MDA-MB-435
# [49] = system: UO-31
# [50] = system: NCI-H522
# [51] = system: SNB-75
# [52] = system: DMS-273
# [53] = system: MDA-MB-231
# [54] = system: A549
# [55] = system: KM-20L2
# [56] = system: SNB-78
# [57] = system: XF498
# [58] = system: LOX IMVI
# [59] = system: OVCAR-8
# [60] = system: SK-MEL-2
# [61] = system: HOP-18
# [62] = system: ACHN
# [63] = system: Hs-578T
# [64] = system: K562
# [65] = system: NCI-H226
# [66] = system: BT-549
# [67] = system: T47D
# [68] = system: SNB-19
# [69] = system: HL-60
smiles,measurement,setting,value
Cc1c2cc[n+]([O-])cc2c(C)c2c1[nH]c1ccccc12,GI50,[1],5.32 µM (inactive)
same,GI50,[2],8.73 µM (inactive)
same,GI50,[3],37.8 µM (inactive)
same,GI50,[4],2.15 µM (inactive)
same,GI50,[5],1.21 µM (inactive)
same,GI50,[6],2.74 µM (inactive)
same,GI50,[7],4.65 µM (inactive)
same,GI50,[8],2.99 µM (inactive)
same,GI50,[9],5.04 µM (inactive)
same,GI50,[10],0.879 µM (active)
same,GI50,[11],6.73 µM (inactive)
same,GI50,[12],5.74 µM (inactive)
same,GI50,[13],12.5 µM (inactive)
same,GI50,[14],10.2 µM (inactive)
same,GI50,[15],4.9 µM (inactive)
same,GI50,[16],7.1 µM (inactive)
same,GI50,[17],5.42 µM (inactive)
same,GI50,[18],6.04 µM (inactive)
same,GI50,[19],2.45 µM (inactive)
same,GI50,[20],9.95 µM (inactive)
same,GI50,[21],7.33 µM (inactive)
same,GI50,[22],8.95 µM (inactive)
same,GI50,[23],17.7 µM (inactive)
same,GI50,[24],4.58 µM (inactive)
same,GI50,[25],5.22 µM
same,GI50,[26],2.88 µM (inactive)
same,GI50,[27],4.15 µM (inactive)
same,GI50,[28],3.76 µM (inactive)
same,GI50,[29],7.05 µM (inactive)
same,GI50,[30],4.93 µM (inactive)
same,GI50,[31],6.19 µM (inactive)
same,GI50,[32],3.57 µM (inactive)
same,GI50,[33],7.14 µM (inactive)
same,GI50,[34],13.6 µM (inactive)
same,GI50,[35],10.8 µM (inactive)
same,GI50,[36],1.39 µM (inactive)
same,GI50,[37],9.75 µM (inactive)
same,GI50,[38],6.85 µM (inactive)
same,GI50,[39],11.2 µM (inactive)
same,GI50,[40],11.4 µM (inactive)
same,GI50,[41],4.59 µM (inactive)
same,GI50,[42],1.29 µM (inactive)
same,GI50,[43],20.8 µM (inactive)
same,GI50,[44],0.998 µM (active)
same,GI50,[45],6.89 µM (inactive)
same,GI50,[46],12.5 µM (inactive)
same,GI50,[47],1.87 µM (inactive)
same,GI50,[48],6.61 µM (inactive)
same,GI50,[49],5.47 µM (inactive)
same,GI50,[50],5.97 µM (inactive)
same,GI50,[51],5.77 µM (inactive)
same,GI50,[52],3.82 µM (inactive)
same,GI50,[53],4.28 µM (inactive)
same,GI50,[54],4.28 µM (inactive)
same,GI50,[55],4.06 µM (inactive)
same,GI50,[56],7.71 µM (inactive)
same,GI50,[57],9.98 µM (inactive)
same,GI50,[58],1.67 µM (inactive)
same,GI50,[59],2.86 µM (inactive)
same,GI50,[60],12.1 µM (inactive)
same,GI50,[61],45 µM (inactive)
same,GI50,[62],1.94 µM (inactive)
same,GI50,[63],3.54 µM (inactive)
same,GI50,[64],4.84 µM (inactive)
same,GI50,[65],5.37 µM (inactive)
same,GI50,[66],9.64 µM (inactive)
same,GI50,[67],2.14 µM (inactive)
same,GI50,[68],7.13 µM (inactive)
same,GI50,[69],7.8 µM (inactive)
